Measured values taken from US8282926B2, “CCR5-specific antibodies with HIV neutralizing activity that recognize a linear dodecapeptide that mimics a conformational epitope in the second extracellular loop of CCR5” (The United States of America, as Represented by the …, priority 2004, dated 2012).

How the values were obtained:
mAb 2D7 [1] = experiment: Peptide ELISA: mAb 2D7 binding to biotinylated peptides captured on streptavidin; set-up: species or system mouse; conditions: for binding of mAb 2D7 to peptide in ELISA: biotinylated peptide captured by streptavidin
Description: The bound antibodies were quantified by HRP-conjugated goat anti-mouse IgG antibody. […] Microtiter wells, coated with mAb 2D7 at 200 ng/well, were incubated with serially diluted synthetic 2D7-2SK peptide or with a control peptide (CGRAARIGFPGAYTTKNG) (SEQ ID NO:3) for 30 min at room temperature, p2D7-2SK phages were then added to all wells (10^9 phages/well), followed by addition of HRP-conjugated anti-phage antibodies. […] MAb 2D7 (50 ng/100 μl/well) was added to plates coated with either unmodified biotin-2D7-2SK peptide or mutated biotin-2D7-2SK peptide derivatives (Table 1), all captured on streptavidin coated wells. The bound 2D7 antibodies were quantified by HRP-conjugated goat anti-mouse IgG antibody. The absorbance value (0.49) of mAb 2D7 binding to 2D7-2SK peptide (unmodified) is represented as 100% control binding.
A. Materials. […] Monoclonal antibody (mAb) 2D7 was purchased from BD Pharmingen (San Diego, Calif.). Immunoglobulin and HRP (horseradish peroxidase) conjugated secondary antibodies used for ELISA were obtained from Jackson Immuno Research Laboratories (West Grove, Pa.). Buffers and substrates for ELISA were purchased from KPL Biotech (Gaithersburg, Md.). New Zealand Rabbits were procured from Charles River (Wilmington, Mass.). B. Epitope mapping using phage display library. A random, linear, dodecapeptide-phage display library (Ph.D-12, New England Biolabs) was used for mAb 2D7 epitope mapping. Affinity selection of the phage clones from the random peptide library was carried out per the manufacturer's instructions with minor modifications. Microtiter wells were coated with 200 ng mAb 2D7 in 100 μl PBS, pH 7.4, at 4° C. for 12 h followed by 1 h at room temperature (RT). The wells were washed with PBS containing 0.05% Tween-20 (PBST) and blocked with EMEM containing 5% FBS at RT for 2 h. The phage library (1×10^10 phages/100 μl) was added to the blocked wells and incubated at RT for 1 h. Unbound phages were washed-off with ten washes of PBST followed by three washes with PBS. The bound phages were eluted at low pH by incubation with elution buffer (0.1 N Gly.HCl, pH 2.2 containing 1 mg/ml BSA) at 37° C. for 10 min. Eluent phages were neutralised with 6 μl of 2 M Tris (pH unadjusted) per 100 μl phage eluate. After four rounds of biopanning, the phage clones were analysed by DNA sequencing and affinity-capture phage ELISA. C. Phage ELISA. Phages used for ELISA were derived from clones selected after the fourth round of panning. Microtiter plates coated with 200 ng of mAb 2D7 were blocked with EMEM containing 5% FBS (blocking solution). The phages (10^10/100 μl/well) diluted in blocking solution were then added and incubated for 1 h at room temperature (RT). The plates were washed three times with PBST prior to addition of […] anti-phage antibody (GE Healthcare, Piscataway, N.J.), and the reaction was quantified using ABTS substrate. Absorbance was measured at 405 nm. D. Peptide ELISA. Peptides were biotinylated using maleimide PEO2-Biotin reagent as per manufacturer's instructions (Pierce Biotech, Rockford, Ill.). The biotinylated peptide ([…]) was captured onto wells coated with 200 ng of streptavidin. After blocking with EMEM containing 5% FBS, serial dilutions of mAb 2D7 in blocking solution were added to each well, incubated for 1 hr at RT, followed by addition of peroxidase-conjugated goat anti-mouse IgG. The reaction was quantified using ABTS substrate. Absorbance was measured at 405 nm. […]

mAb 2D7 [2] = experiment: Competition phage ELISA using synthetic peptides; assay type: binding, mouse; conditions: free peptide, FIG. 3B
[3] = tested on: PM1 (CD4+/CCR5+) cells and 12E1 cells expressing HIV-1 envelope; experiment: Fusion-inhibition (syncytium-formation) assay, PM1 cells with 12E1 cells expressing HIV-1 envelope; assay type: cell-based, human
2D7-2SK peptide = experiment: Peptide ELISA: antibody binding to biotinylated 2D7-2SK peptide; conditions: ELISA / binding assay
Description: IgG antibodies from rabbit immunized subcutaneously with KLH-conjugated 2D7-2SK peptide were used in peptide and Cell ELISA. […] Specific antibody binding was measured by HRP-conjugated goat anti-rabbit IgG antibody.
A. Materials. […] Monoclonal antibody (mAb) 2D7 was purchased from BD Pharmingen (San Diego, Calif.). Immunoglobulin and HRP (horseradish peroxidase) conjugated secondary antibodies used for ELISA were obtained from Jackson Immuno Research Laboratories (West Grove, Pa.). Buffers and substrates for ELISA were purchased from KPL Biotech (Gaithersburg, Md.). New Zealand Rabbits were procured from Charles River (Wilmington, Mass.). B. Epitope mapping using phage display library. A random, linear, dodecapeptide-phage display library (Ph.D-12, New England Biolabs) was used for mAb 2D7 epitope mapping. Affinity selection of the phage clones from the random peptide library was carried out per the manufacturer's instructions with minor modifications. […] After four rounds of biopanning, the phage clones were analysed by DNA sequencing and affinity-capture phage ELISA. […] The plates were washed three times with PBST prior to addition of […] anti-phage antibody (GE Healthcare, Piscataway, N.J.), and the reaction was quantified using ABTS substrate. Absorbance was measured at 405 nm. […] The reaction was quantified using ABTS substrate. Absorbance was measured at 405 nm. […]

## E-W-Q-K-E-G-L-V-T-L-W-L-G-G-G-G-S-C (EWQKEGLVTLWLGGGGSC) [2D7-2SK]
mAb 2D7 [1]
  binding of mAb 2D7 to peptide in ELISA: concentration-dependent specific reactivity
mAb 2D7 [1]; mAb 2D7 50 ng/100 μl/well, represented as 100% control binding, FIG. 3C
  absorbance value of mAb 2D7 binding to peptide: 0.49
mAb 2D7 [2]
  inhibition of binding of phage p2D7-2SK to mAb 2D7-coated plates: inhibited
[3]; peptide alone
  inhibitory activity of peptide by itself in the fusion assay: did not demonstrate any inhibitory activity

## E-W-Q-R-E-G-L-V-T-L-W-L-G-G-G-G-S-C (EWQREGLVTLWLGGGGSC) [2D7-2SK-K4R]
mAb 2D7 [1]
  binding of mAb 2D7 to peptide in ELISA: completely lost binding

## F-C-A-L-D-G-D-F-G-W-L-A-P-A-C (FCALDGDFGWLAPAC) [MD23, reference compound]
mAb 2D7 [1]
  binding of mAb 2D7 to peptide in ELISA: did not bind

## Q-L-W-L-G-W-T-E-L-E-G-V-K-G-G-G-S-C (QLWLGWTELEGVKGGGSC) [2D7-2SK-SCR, reference compound]
mAb 2D7 [1]
  binding of mAb 2D7 to peptide in ELISA: not

B1: ScFv-SK-34: single chain human monoclonal antibody against peptide 2D7-2SK; VH SEQ ID NO:12, VL SEQ ID NO:14 (antibody, listed as Homo sapiens, V domains shown)
VH: EVQLLESGGGLVQPGGSLRLSCAASGFTFDDYGMSWVRQAPGKGLEWVSVISASGGSTYYADSVNGRFTISRDNSKNTLYLQMNSLRAEDTAVYYCARYLPGLWAMDVWGQGTLVTVSSGSA
VL: DIVLTQPPSASGTPGQRVTISCTGSRSNIGKNYVSWYQQLPGKAPKLLIYKNYQRPSGVPDRFSGSKSGTSASLAISGLRSEDEADYYCAAWDDSLSGWVFGGSTQLTVLA
[3]; R5 HIV-1 envelopes, human CCR5 expressing cells
  inhibition of HIV syncytia formation, in words: positive
2D7-2SK peptide
  binding to 2D7-2SK peptide: bind preferentially and with high affinity
